# Experimental data: ChEMBL document CHEMBL1201862, “PubChem BioAssay data set” (2004)
#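 Grown in 96-well plates, cells were treated for 48 hours with each compound at five concentrations. Insufficient inhibition: endpoint recorded as highest concentration tested. GI50 = concentration required for 50% inhibition of growth.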 Calls of active or inactive are those of the source. Rule as the data show it: active = GI50 up to about 1.1 µM and inactive = higher.
# Assays:
# Experiment in all cases: inhibition of tumour cell growth, NCI panel, 48 h
# [1] = system: RXF 393
# [2] = system: SK-OV-3
# [3] = system: IGROV-1
# [4] = system: SK-MEL-2
# [5] = system: EKVX
# [6] = system: K562
# [7] = system: OVCAR-8
# [8] = system: SF-539
# [9] = system: RPMI-8226
# [10] = system: COLO 205
# [11] = system: M14
# [12] = system: M19-MEL
# [13] = system: HOP-62
# [14] = system: U-251
# [15] = system: SF-295
# [16] = system: SF-268
# [17] = system: HCT-116
# [18] = system: HT-29
# [19] = system: Malme-3M
# [20] = system: HCT-15
# [21] = system: SW-620
# [22] = system: A549
# [23] = system: HL-60
# [24] = system: SNB-75
# [25] = system: UACC-257
# [26] = system: LXFL 529
# [27] = system: NCI-H460
# [28] = system: MOLT-4
# [29] = system: LOX IMVI
# [30] = system: SN12C
# [31] = system: NCI-H226
# [32] = system: HOP-92
# [33] = system: OVCAR-3
# [34] = system: NCI-H522
# [35] = system: CCRF-CEM
# [36] = system: HOP-18
# [37] = system: XF498
# [38] = system: TK-10
# [39] = system: KM12
# [40] = system: OVCAR-5
# [41] = system: 786-0
# [42] = system: HCC 2998
# [43] = system: A498
# [44] = system: OVCAR-4
# [45] = system: NCI-H23
# [46] = system: SK-MEL-28
# [47] = system: DMS-273
# [48] = system: SR
# [49] = system: ACHN
# [50] = system: DMS-114
# [51] = system: SK-MEL-5
# [52] = system: RXF 631
# [53] = system: UACC-62
# [54] = system: SNB-19
# [55] = system: SNB-78
# [56] = system: UO-31
# [57] = system: KM-20L2
# [58] = system: CAKI-1
smiles,measurement,setting,value
CCc1cccc(CC)c1NC(=O)CC1SC(N)=NC1=O (stereo not drawn),GI50,[1],> 100 µM (inactive)
same,GI50,[2],> 100 µM (inactive)
same,GI50,[3],> 100 µM (inactive)
same,GI50,[4],> 100 µM (inactive)
same,GI50,[5],> 100 µM (inactive)
same,GI50,[6],> 100 µM (inactive)
same,GI50,[7],> 100 µM (inactive)
same,GI50,[8],> 100 µM (inactive)
same,GI50,[9],> 100 µM (inactive)
same,GI50,[10],> 100 µM (inactive)
same,GI50,[11],> 100 µM (inactive)
same,GI50,[12],> 100 µM (inactive)
same,GI50,[13],> 100 µM (inactive)
same,GI50,[14],> 100 µM (inactive)
same,GI50,[15],> 100 µM (inactive)
same,GI50,[16],> 100 µM (inactive)
same,GI50,[17],> 100 µM (inactive)
same,GI50,[18],> 100 µM (inactive)
same,GI50,[19],> 100 µM (inactive)
same,GI50,[20],> 100 µM
same,GI50,[21],> 100 µM (inactive)
same,GI50,[22],> 100 µM (inactive)
same,GI50,[23],> 100 µM (inactive)
same,GI50,[24],> 100 µM (inactive)
same,GI50,[25],> 100 µM (inactive)
same,GI50,[26],> 100 µM (inactive)
same,GI50,[27],> 100 µM (inactive)
same,GI50,[28],> 100 µM (inactive)
same,GI50,[29],> 100 µM (inactive)
same,GI50,[30],> 100 µM (inactive)
same,GI50,[31],> 100 µM (inactive)
same,GI50,[32],> 100 µM (inactive)
same,GI50,[33],> 100 µM (inactive)
same,GI50,[34],> 100 µM (inactive)
same,GI50,[35],> 100 µM (inactive)
same,GI50,[36],> 100 µM (inactive)
same,GI50,[37],> 100 µM (inactive)
same,GI50,[38],> 100 µM (inactive)
same,GI50,[39],> 100 µM (inactive)
same,GI50,[40],> 100 µM (inactive)
same,GI50,[41],> 100 µM (inactive)
same,GI50,[42],> 100 µM (inactive)
same,GI50,[43],> 100 µM (inactive)
same,GI50,[44],> 100 µM (inactive)
same,GI50,[45],> 100 µM (inactive)
same,GI50,[46],> 100 µM (inactive)
same,GI50,[47],> 100 µM (inactive)
same,GI50,[48],97.5 µM (inactive)
same,GI50,[49],> 100 µM (inactive)
same,GI50,[50],> 100 µM (inactive)
same,GI50,[51],> 100 µM (inactive)
same,GI50,[52],> 100 µM (inactive)
same,GI50,[53],> 100 µM (inactive)
same,GI50,[54],> 100 µM (inactive)
same,GI50,[55],> 100 µM (inactive)
same,GI50,[56],> 100 µM (inactive)
O=C(NCCCN1CCN(CCCNC(=O)c2cccc3ccccc23)CC1)c1cccc2ccccc12,GI50,[2],23 µM (inactive)
same,GI50,[3],78.3 µM (inactive)
same,GI50,[4],> 100 µM (inactive)
same,GI50,[5],> 100 µM (inactive)
same,GI50,[6],41.4 µM (inactive)
same,GI50,[7],> 100 µM (inactive)
same,GI50,[8],54.7 µM (inactive)
same,GI50,[57],34 µM (inactive)
same,GI50,[9],> 100 µM (inactive)
same,GI50,[10],> 100 µM (inactive)
same,GI50,[11],> 100 µM (inactive)
same,GI50,[12],> 100 µM (inactive)
same,GI50,[13],30.8 µM (inactive)
same,GI50,[14],97.5 µM (inactive)
same,GI50,[15],54.8 µM (inactive)
same,GI50,[17],39.1 µM (inactive)
same,GI50,[18],41.2 µM (inactive)
same,GI50,[19],57.4 µM (inactive)
same,GI50,[20],> 100 µM
same,GI50,[21],> 100 µM (inactive)
same,GI50,[22],> 100 µM (inactive)
same,GI50,[23],79.6 µM (inactive)
same,GI50,[24],20.9 µM (inactive)
same,GI50,[25],> 100 µM (inactive)
same,GI50,[26],89.7 µM (inactive)
same,GI50,[27],93.1 µM (inactive)
same,GI50,[28],> 100 µM (inactive)
same,GI50,[29],> 100 µM (inactive)
same,GI50,[30],> 100 µM (inactive)
same,GI50,[31],> 100 µM (inactive)
same,GI50,[32],0.107 µM (active)
same,GI50,[33],79.3 µM (inactive)
same,GI50,[35],> 100 µM (inactive)
same,GI50,[36],> 100 µM (inactive)
same,GI50,[37],21.9 µM (inactive)
same,GI50,[38],65.3 µM (inactive)
same,GI50,[39],> 100 µM (inactive)
same,GI50,[40],> 100 µM (inactive)
same,GI50,[41],44.1 µM (inactive)
same,GI50,[42],35.1 µM (inactive)
same,GI50,[43],> 100 µM (inactive)
same,GI50,[44],> 100 µM (inactive)
same,GI50,[45],57.8 µM (inactive)
same,GI50,[58],51.3 µM (inactive)
same,GI50,[49],> 100 µM (inactive)
same,GI50,[50],59.8 µM (inactive)
same,GI50,[51],36.4 µM (inactive)
same,GI50,[52],75.7 µM (inactive)
same,GI50,[53],> 100 µM (inactive)
same,GI50,[54],76.7 µM (inactive)
same,GI50,[55],41.3 µM (inactive)
same,GI50,[56],32.3 µM (inactive)
